# Patent US5405857A, “3-substituted 1,2,3,4,-oxatriazole-5-imine compounds, a process for the preparation thereof and a pharmaceutical preparation containing said compounds” (A/S GEA Farmaceutisk Fabrik, priority 1991, dated 1995)
# Experiments:
# blood platelets = experiment: Inhibition of blood platelet aggregation (aggregometer, ADP); format: cell-based, human (healthy testees); settings: Platelet, 0.05 h; human PRP, ADP 2 to 4 μM, 3 min incubation, 37° C.; read-out: IC50 (Inhibition of blood platelet aggregation)
# Method in brief: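 Citrated human PRP (0.38% sodium citrate final; donors drug-free ≥8 days) preincubated 3 min with test substance at 37 °C under stirring, then ADP 2 to 4 μM added; aggregation followed by light transmission against PPP. IC50 from linear regression of % inhibition vs log concentration.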
# PAI-1 = experiment: Inhibition of plasminogen activator inhibitor (PAI-1) from blood platelets (fibrinolytic activity); format: cell-based, human; settings: 50 μM, 60 minutes
# Description: Compounds according to the invention were tested for their inhibition of plasminogen activator inhibitor (PAI). An established thrombus comprises aggregated platelets cohered by fibrin. The organism has a fibrinolyric system for maintaining normal physiological conditions. Endogenous plasminogen is activated to plasmin (fibrinolysin, that is a proteolytic enzyme decomposing fibrin) by means of a tissue plasminogen activator (t-PA). The platelets include the enzyme PAI-1 inhibiting the activation of plasminogen to plasmin, and thus also the decomposition of fibrin.
# A general stimulation of the fibrinolytic system can cause serious hemostatic side effects (haemorrhages). A specific inhibition of PAI-1 induces an increased fibrinolysis in areas with many platelets, which is exactly the case in thrombi. As a result a thrombolytic effect is obtained.
# Human PRP prepared by slight centrifugation as previously mentioned is used, but at a low temperature (4° C.). By incubation of PRP (1 ml in a plastic tube) during a slight shaking at 37° C. the PAI-1 activity is liberated, said PAI-1 activity being measured spectrophotometrically by means of a two-step procedure using commercial kits (Spectrolyse™/fibrin kit from BIOPOOL, Sweden).
# The PAI-1 activity of the control PRP and PRP incubated with each of 6 compounds according to the invention and the reference substance sodium niroprusside (NNP) (50 μM of each for 60 minutes) appear from Table 6.
# [1] = system: polymorph nuclear leukocytes (PMNs), c-GMP; experiment: Stimulation of c-GMP content in PMNs; format: cell-based, human; settings: 37° C., 10 minutes
# Description: Compounds according to the invention were tested for their ability to increase the content of cyclic guanosine monophosphate (c-GMP), to inhibit the synthesis of the leukotriene B4 (LTB4), and to inhibit the chemotactical movement of polymorph nuclear leukocytes (PMN). The polymorph nuclear leukocytes play a vital part in the cellular part of the inflammation process. At diseases, such as asthma, the mucuos membrane of the respiratory passages is swollen as a result of an inflammation with a significant infiltration of polymorph nuclear leukocytes (PMN's) in particular. Particularly effective substances for the treatment of asthma are such which in addition to relaxing the musculature in the respiratory passages also have an anti-inflammatory effect on the cellular phase of the inflammatory process, that is inhibiting the leukocyte function.
# Isolated human PMNs are incubated at 37° C. for 10 minutes, whereafter the content of cyclic guanosine monophosphate (c-GMP) is measured. Further, the synthesis of the LTB4 is determined after stimulation with Ca-ionophore (A23187) and the chemotaxis (controlled movement) towards FMLP (a substance attracting the polymorph nuclear leukocytes, PMNs) is determined.
# Three compounds according to the invention and the reference substance SIN-1 were tested for their ability to stimulate the content of cyclic guanosine monophosphate (c-GMP).
structure (smiles),measurement,setting,value
COc1ccc(Cl)cc1-[n+]1noc([NH-])n1 [Example 20],IC50,blood platelets,0.18 µM
same,% Inhibition of PAI-1 activity,PAI-1; compared to control,35%
same,PAI-1 activity,"PAI-1; human PRP, control 3.24",2.09 U/10^8 platelets
same,c-GMP in PMNs,[1]; 1 μM,175 fmole/10^6 cells
same,c-GMP in PMNs,[1]; 10 μM,492 fmole/10^6 cells
same,c-GMP in PMNs,[1]; 100 μM,866 fmole/10^6 cells
